What was measured:
Experiment in all cases: Experiment on weeding effect in post-emergence stage
Format in all cases: in vivo
Conditions in all cases: dose 15 g a.i./ha, fresh weight control rate level
Leptochloa chinensis = system: Leptochloa chinensis
From the text: (§1) Experiment on weeding effect in post-emergence stage:
(§2) Monocotyledonous and dicotyledonous weed seeds (Descurainia sophia, Capsella bursa-pastoris, Abutilon theophrasti, Galium aparine, Stellaria media, Lithospermum arvense, Rorippa indica, Alopecurus aequalis, Alopecurus japonicus, Beckmannia syzigachne, Sclerochloa dura, Conyza Canadensis, Phleum paniculatum, Veronica didyma Tenore, Eleusine indica, Bromus japonicus, Aegilops tauschii, Phalaris arundinacea, Amaranthus retroflexus, Chenopodium album, Commelina communis, Sonchus arvensis, Convolvulus arvensis, Cirsium setosum, Solanum nigrum, Acalypha australis, Digitaria sanguinalis, Echinochloa crusgalli, Setaria viridis, Setaria glauca, Leptochloa chinensis, Monochoria vaginalis, Sagittaria trolia, Scirpus juncoides, Cyperus rotundus, Cyperus iria, Cyperus difformis, Elmbristylis, Portulaca oleracea, Xanthium sibiricum, Pharbitis nil) and major crop seeds (wheat, corn, rice, soybean, cotton, oilseed rape, millet, sorghum, potato, sesame, ricinus) were placed in plastic pots filled with soil, then covered with 0.5-2 cm of soil, allowed to grow in a good greenhouse environment. After 2 weeks of sowing, the test plants were treated in the 2-3 leaf stage. The tested compounds of the present invention were respectively dissolved in acetone, then added with Tween 80 and 1.5 liter/ha of emulsifiable concentrate of methyl oleate as synergist, diluted with a certain amount of water to obtain a solution with a certain concentration, and sprayed with a spray tower onto the plants. After the application, the plants were cultured for 3 weeks in the greenhouse, and then the experimental results of the weeding were counted. The doses of the used compounds were 500, 250, 125, 60, 15 g a.i./ha, and the averages were obtained by repeating for three times.

Eleusine indica = system: Eleusine indica
From the text: as §1, §2

Digitaria sanguinalis = system: Digitaria sanguinalis
From the text: as §1, §2

Setaria viridis = system: Setaria viridis
From the text: as §1, §2

Echinochloa crusgalli = system: Echinochloa crusgalli
From the text: as §1, §2

Amaranthus retroflexus = system: Amaranthus retroflexus
From the text: as §1, §2

Abutilon theophrasti = system: Abutilon theophrasti
From the text: as §1, §2

Veronica didyma Tenore = system: Veronica didyma Tenore
From the text: as §1, §2

Galium aparine = system: Galium aparine
From the text: as §1, §2

| SMILES | weeding effect in post-emergence stage, Leptochloa chinensis (level) (Leptochloa chinensis) | weeding effect in post-emergence stage, Eleusine indica (level) (Eleusine indica) | weeding effect in post-emergence stage, Digitaria sanguinalis (level) (Digitaria sanguinalis) | weeding effect in post-emergence stage, Setaria viridis (level) (Setaria viridis) | weeding effect in post-emergence stage, Echinochloa crusgalli (level) (Echinochloa crusgalli) | weeding effect in post-emergence stage, Amaranthus retroflexus (level) (Amaranthus retroflexus) | weeding effect in post-emergence stage, Abutilon theophrasti (level) (Abutilon theophrasti) | weeding effect in post-emergence stage, Veronica didyma Tenore (level) (Veronica didyma Tenore) | weeding effect in post-emergence stage, Galium aparine (level) (Galium aparine) |
| --- | --- | --- | --- | --- | --- | --- | --- | --- | --- |
| CC=NOC(=O)C1(C)CC(c2cc(-n3c(=O)n(C)c(=S)n(C)c3=O)c(F)cc2Cl)=NO1 (mixture of isomers) [Compound 2] | 5 (Level 5: growth control rate is above 85%) | 5 (Level 5: growth control rate is above 85%) | 5 (Level 5: growth control rate is above 85%) | 5 (Level 5: growth control rate is above 85%) | 5 (Level 5: growth control rate is above 85%) | 5 (Level 5: growth control rate is above 85%) | 5 (Level 5: growth control rate is above 85%) | 5 (Level 5: growth control rate is above 85%) | 5 (Level 5: growth control rate is above 85%) |
| CCC(C)=NOC(=O)C1(C)CC(c2cc(-n3c(=O)n(C)c(=S)n(C)c3=O)c(F)cc2Cl)=NO1 (mixture of isomers) [Compound 79] | 5 (Level 5: growth control rate is above 85%) | 5 (Level 5: growth control rate is above 85%) | 5 (Level 5: growth control rate is above 85%) | 5 (Level 5: growth control rate is above 85%) | 5 (Level 5: growth control rate is above 85%) | 5 (Level 5: growth control rate is above 85%) | 5 (Level 5: growth control rate is above 85%) | 5 (Level 5: growth control rate is above 85%) | 5 (Level 5: growth control rate is above 85%) |
| CC(=NOC(=O)C1(C)CC(c2cc(-n3c(=O)n(C)c(=S)n(C)c3=O)c(F)cc2Cl)=NO1)C(C)C (mixture of isomers) [Compound 80] | 5 (Level 5: growth control rate is above 85%) | 5 (Level 5: growth control rate is above 85%) | 5 (Level 5: growth control rate is above 85%) | 5 (Level 5: growth control rate is above 85%) | 5 (Level 5: growth control rate is above 85%) | 5 (Level 5: growth control rate is above 85%) | 5 (Level 5: growth control rate is above 85%) | 5 (Level 5: growth control rate is above 85%) | 5 (Level 5: growth control rate is above 85%) |
| CC(=NOC(=O)C1(C)CC(c2cc(-n3c(=O)n(C)c(=S)n(C)c3=O)c(F)cc2Cl)=NO1)C(C)(C)C (mixture of isomers) [Compound 81] | 5 (Level 5: growth control rate is above 85%) | 5 (Level 5: growth control rate is above 85%) | 5 (Level 5: growth control rate is above 85%) | 5 (Level 5: growth control rate is above 85%) | 5 (Level 5: growth control rate is above 85%) | 5 (Level 5: growth control rate is above 85%) | 5 (Level 5: growth control rate is above 85%) | 5 (Level 5: growth control rate is above 85%) | 5 (Level 5: growth control rate is above 85%) |
| CC(=NOC(=O)C1(C)CC(c2cc(-n3c(=O)n(C)c(=S)n(C)c3=O)c(F)cc2Cl)=NO1)C1CC1 (mixture of isomers) [Compound 84] | 5 (Level 5: growth control rate is above 85%) | 5 (Level 5: growth control rate is above 85%) | 5 (Level 5: growth control rate is above 85%) | 5 (Level 5: growth control rate is above 85%) | 5 (Level 5: growth control rate is above 85%) | 5 (Level 5: growth control rate is above 85%) | 5 (Level 5: growth control rate is above 85%) | 5 (Level 5: growth control rate is above 85%) | 5 (Level 5: growth control rate is above 85%) |
| Cn1c(=S)n(C)c(=O)n(-c2cc(C3=NOC(C)(C(=O)ON=Cc4ccccc4)C3)c(Cl)cc2F)c1=O (mixture of isomers) [Compound 90] | 5 (Level 5: growth control rate is above 85%) | 5 (Level 5: growth control rate is above 85%) | 5 (Level 5: growth control rate is above 85%) | 5 (Level 5: growth control rate is above 85%) | 5 (Level 5: growth control rate is above 85%) | 5 (Level 5: growth control rate is above 85%) | 5 (Level 5: growth control rate is above 85%) | 5 (Level 5: growth control rate is above 85%) | 5 (Level 5: growth control rate is above 85%) |
| Cc1ccc(C=NOC(=O)C2(C)CC(c3cc(-n4c(=O)n(C)c(=S)n(C)c4=O)c(F)cc3Cl)=NO2)o1 (mixture of isomers) [Compound 117] | 5 (Level 5: growth control rate is above 85%) | 5 (Level 5: growth control rate is above 85%) | 5 (Level 5: growth control rate is above 85%) | 5 (Level 5: growth control rate is above 85%) | 5 (Level 5: growth control rate is above 85%) | 5 (Level 5: growth control rate is above 85%) | 5 (Level 5: growth control rate is above 85%) | 5 (Level 5: growth control rate is above 85%) | 5 (Level 5: growth control rate is above 85%) |

From patent publication US20230072860A1, “ISOXAZOLINE OXIME FORMATE COMPOUND, PREPARATION METHOD THEREFOR, HERBICIDAL COMPOSITION AND USE THEREOF” (QINGDAO KINGAGROOT CHEMICAL COMPOUND CO., LTD., priority 2020, published 2023)
